{
  "source": "patent US20140099262A1",
  "about": "“ISOTOPICALLY LABELED CDP-CHOLINE AND USES THEREOF” (BRAIN WATCH LTD., priority 2011, published 2014)",
  "key": {"[1]": {"settings": "intravenous administration; cited from earlier work"}, "[2]": {"assay": "31P T1 (spin-lattice relaxation) measurement of CDP-Choline phosphates by inversion recovery, in water and in plasma", "assay_type": "physicochemical", "settings": "31P-NMR, 11.8T, confidence interval in brackets", "protocol": "[…] CDP-Choline were dissolved in 700 μL distilled water containing 10% deuterated water (85.7 mM solution) and stored in a 5 mm NMR tube in the freezer until assay.\nTwo units of expired plasma (about 250 cc per unit) from blood type AB and O were obtained frozen from the blood bank section at Hadassah Medical Center. Plasma was defrosted in the refrigerator overnight. 565 μl of plasma solution was mixed with 75 IA distilled water and transferred to a 5 mm NMR tube. The solution was kept on ice until NMR analysis the same day. 60 μl CDP-Choline was added to the solution and ^31P-NMR was recorded 37 s from the time CDP-Choline mixed with the plasma solutions in the NMR tube. The Ionic strength of the solution was 315.04 mM and the concentration of CDP-Choline 15.4 mM.\nSpectra were obtained on an 11.8T high-resolution spectrometer (Varian, Palo Alto, Calif., USA) with a 5 mm direct multi-nuclei probe.\nT1 measurements were performed for CDP-Choline in water and in plasma with the standard inversion recovery pulse sequence. The data were fitted to the standard inversion recovery equation using the MATLAB software (The MathWorks Inc., Natick, Mass., USA)."}, "[3]": {"assay": "T1 of carbon-13 nuclei in the choline moiety of CDP-choline", "assay_type": "physicochemical", "settings": "11.8 T, non-deuterated positions", "from_the_text": "Furthermore, it was unexpected to find that the relaxation time of the phosphorus nuclei is longer in plasma as compared to water."}},
  "note": "Marks after values point to notes of the source that are not given here.",
  "data": [
    {"smiles": "C[N+](C)(C)CCOP(=O)(O)OP(=O)(O)OC[C@H]1O[C@@H](n2ccc(N)nc2=O)[C@H](O)[C@@H]1O", "note": "[CDP-Choline, 5′-O-[hydroxy({hydroxy[2-(trimethylammonio)ethoxy]phosphoryl}oxy)phosphoryl]cytidine]", "values": [
      {"measurement": "LD0 of CDP-Choline compared to choline", "setting": "[1]", "value": "about 40 fold"},
      {"measurement": "T1 of phosphate P1", "setting": "[2]; H2O, 85.7 mM", "value": "1.2 (0.9-1.5) s"},
      {"measurement": "T1 of phosphate P2", "setting": "[2]; H2O, 85.7 mM", "value": "1.4 (1.3-1.6) s"},
      {"measurement": "T1 of phosphate P1", "setting": "[2]; plasma, 15.4 mM", "value": "2.0 (1.9-2.0)* s"},
      {"measurement": "T1 of phosphate P2", "setting": "[2]; plasma, 15.4 mM", "value": "2.6 (2.4-2.8) s"},
      {"measurement": "T1 of the carbon-13 nuclei in the choline moiety", "setting": "[3]", "value": "2 to 3", "unit": "s"}
    ]}
  ]
}
